These results are taken from patent publication US7960552B2, “Farnesoid X receptor agonists” (GlaxoSmithKline LLC, priority 2006, dated 2011).

Structures are written as SMILES. Entries after “also recorded” stand apart in the source; their conditions may differ.

The test system of experiment [1] is high-fat diet fed obese mice. Description: Effects of FXR agonists on diet induced obese mice. Particulars: 10, 30 and 100 mg/kg twice a day orally; for serum NEFA / serum cholesterol / serum glucose / serum glycerol / serum insulin / serum triglyceride: end of study; for body fat mass: four weeks of treatment, QMR. It counts as in vivo, C57BL mice. As for the experimental part: Methods: Male 20 to 25 g C57BL mice (Charles River, Indianapolis, Ind.) were housed at 72° F. and 50% relative humidity with a 12 h light and dark cycle and fed with standard rodent chow (Purina 5001, Harlan Teklad, Indianapolis, Ind.) or a high-fat diet (TD93075, Harlan Teklad, Indianapolis, Ind.) for eight weeks. After three weeks, mice on high-fat diet were randomized to vehicle or treatment groups based on fasting glucose and body weight. Starting from the fifth week, mice were given either vehicle or the compound in Example 1 (10, 30 and 100 mg/kg) or the compound in Example 5 (10, 30, 100 mg/kg) twice a day orally. Mice on the standard rodent chow were also given vehicle as a control. Body composition was measured using the quantitative magnetic resonance (QMR) method before and at the end of compound treatment. […] Serum chemistry levels were measured using the Instrumentation Laboratory Ilab600™ clinical chemistry analyzer (Instrumentation Laboratory, Boston, Mass.).

Experiment [2] relates to hepatic stellate cells (HSC). Particulars: cultured HSCs; cited from earlier work.
For experiment [3], the system named is rodent models of hepatic fibrosis. Particulars: multiple rodent models; cited from earlier work.
Experiment [4] relates to high-fat diet induced insulin resistant, glucose intolerant, and obese mouse model. Particulars: mice on high-fat diet, cited from earlier work.
For experiment [5], the system named is db/db mice. The conditions noted are these: oral 30 mg/kg, bid; cited from earlier work.
Experiment [6] has as its system bile duct-ligated mouse model. The conditions noted are these: cited from earlier work.
Where [7] appears, read: 100 mg/kg twice a day orally, 100 mg/kg.

Take `CC(C)c1onc(-c2c(Cl)cccc2Cl)c1COc1ccc(-c2ccc3nc(C(=O)O)ccc3c2)cc1` [Example 1, 6-[4-({[3-(2,6-Dichlorophenyl)-5-(1-methylethyl)-4-isoxazolyl]methyl}oxy)phenyl]-2-quinolinecarboxylic Acid]: in experiment [1], the “serum NEFA” value is recorded as “decreased”, the serum cholesterol result is on record as “decreased”, the serum glucose entry is recorded as “decreased” and the serum glycerol result is on record as “decreased”. Further, in experiment [1], the serum insulin entry is given as “decreased”, the serum triglyceride result was “decreased” and the body fat mass entry is on record as “decreased”.
Regarding `CC(C)c1onc(-c2c(Cl)cccc2Cl)c1COc1ccc(-c2ccc3cc(C(=O)O)ncc3c2)cc1` [Example 5, 7-[4-({[3-(2,6-Dichlorophenyl)-5-(1-methylethyl) -4-isoxazolyl]methyl}oxy)phenyl]-3-isoquinolinecarboxylic acid], in experiment [1], the “serum NEFA” value is reported as “decreased”, the serum cholesterol result was “decreased”, the serum glucose entry is “decreased” and the serum glycerol entry is on record as “decreased”. In experiment [1], the serum insulin result was “decreased”, the serum triglyceride result is recorded as “decreased” and the body fat mass result is given as “decreased”.
Take `CC[C@H]1[C@@H](O)[C@@H]2[C@H](CC[C@]3(C)[C@@H]([C@H](C)CCC(=O)O)CC[C@@H]23)[C@@]2(C)CC[C@@H](O)C[C@@H]12` [Example 6EtCDCA, 6-ethyl-chenodeoxycholic acid]: in experiment [2], the “expression of fibrotic marker α1(I)collagen” value is “decreased” and the “expression of fibrotic marker α-smooth muscle actin” value was “decreased”. Further, in experiment [3], the “development of hepatic fibrosis” value was “prevent” and the “resolution of hepatic fibrosis” value is listed as “promote”.
As for `CC(C)c1onc(-c2c(Cl)cccc2Cl)c1COc1ccc(/C=C/c2cccc(C(=O)O)c2)c(Cl)c1` [GW4064], in experiment [4] (setting [7]), the serum glucose entry is given as “decreased”, the serum insulin entry is given as “decreased” and the serum triglyceride result is listed as “decreased”. The glucose tolerance entry in experiment [4] (100 mg/kg twice a day orally, GTT, 100 mg/kg) is on record as “corrected glucose intolerance; also recorded: improve”. For the same compound, in experiment [4] (100 mg/kg twice a day orally), the “high-fat diet induced body weight gain” value is given as “reduced” and the liver triglyceride content result was “reduced”. In experiment [4], the body fat mass entry was “decrease”, the body weight entry is given as “decrease” and the serum total cholesterol result was “decrease”. Further, in experiment [5], the NEFA entry is “decreased”, the total cholesterol result is given as “decreased” and the triglyceride result is reported as “decreased”. In experiment [6], the bacterial overgrowth entry is reported as “decreased”, the mucosal barrier result is “improved” and the “translocation of bacteria to mesenteric lymph nodes” value is reported as “decreased”.
